Test results: patent publication US12071596B2, “Metal working fluids biocide” (Dow Global Technologies LLC, priority 2021, dated 2024)

System: mixed microbial inoculum
Test: Microbial growth inhibition test (challenge test) in diluted metalworking fluid
Type: cell-based
Conditions: 0.91 wt. % amine in diluted metalworking fluid, 30° C.; for Challenge Test Results 2nd dose Day 14: 2nd dosing 0.5 ml mixed inoculum, read at Day 14; for Challenge Test Results 3rd dose Day 21: 3rd dosing 1 ml mixed inoculum, read at Day 21; for Challenge Test Results 4th dose Day 28: 4th dosing 1 ml mixed inoculum, read at Day 28; for Challenge Test Results 5th dose Day 35: 5th dosing 3 ml mixed inoculum, read at Day 35; for Challenge Test Results 1st dose Day 7: 50 g sample, 1st dosing 0.5 ml mixed inoculum, read at Day 7
Protocol: Test 1—Microbial Growth Inhibition Test
To test the novel disclosed microbial growth control agent the diluted metal working fluid shown in Table 1 is mixed with the various ether amines listed in Table 2. Firstly, using 250 mL glass beaker to prepare 100 g the basic diluted metalworking fluid with the recipe in Table 1 except amine ingredient, stirring for getting clear solution. Repeating the first step to get 8 basic diluted metalworking fluid solutions. Secondly, adding every kind of amine or amine combination from Table 2 as comparative example 1-2 and example 1-6. Thirdly, 50 g the comparative example 1-2 and example 1-6 into 8 petri dishes with a diameter of 10 cm and dosed with 0.5 ml of mixed microbial inoculum. Measuring the microbial growth in the petri dishes after 7 days and repeating to dose the mixed microbial inoculum and measuring them in 5 times. For the first and second dosing, 0.5 ml mixed inoculum is used; in third and fourth dosing, 1 ml mixed inoculum is used; and in the fifth dosing, 3 ml mixed inoculum is used The MWF microbial inoculum was prepared by adding 0.1 mL of each bacterial overnight broth culture and 1.0 mL of each yeast broth culture to the 10 mL of mold suspension and blending. The microbial strains used in this experiment are listed in Table 3 below (8 bacteria, 2 molds and 2 fungi). These strains were cultivated separately in nutrient broth and then blend them together. The mixed strains were then injected into each tested MWF and amine sample and mixed well.
50 grams of each of the MWF treated with amine samples (e.g., Examples 1-5 and Comparative Examples 1-2) were dosed with 0.5 ml of mixed microbial inoculum on Day 0 of this experiment. This inoculation introduces around […] colony forming units per milliliter of sample, (CFU/ml) of microorganisms.
The mixed inoculated samples where then incubated at 30° C. to determine the biocidal effect of the tested amines on the microbes. After seven days, the number of microorganisms surviving in the petri dish was observed and if the colony growth was less than 10, it was considered as PASS. After measuring the number of surviving microorganisms, another round of dosing with the mixed microbial inoculum was complete. The step of observation and subsequent dosing was done 5 times to challenge the microbial growth inhibition capabilities of the tested examples. For the first and second dosing, 0.5 ml mixed inoculum was used; in third and fourth dosing, 1 ml mixed inoculum was used; and in the fifth dosing, 3 ml mixed inoculum is used.

| SMILES | Challenge Test Results 2nd dose Day 14 | Challenge Test Results 3rd dose Day 21 | Challenge Test Results 4th dose Day 28 | Challenge Test Results 5th dose Day 35 | Challenge Test Results 1st dose Day 7 |
| --- | --- | --- | --- | --- | --- |
| CCCOCC(C)OCC(C)N (centres unmarked) [Example 6, 1-(1-methyl-2-propoxyethoxy)-2-propanamine] | Pass (if the colony growth was less than 10, it was considered as PASS) | Pass (if the colony growth was less than 10, it was considered as PASS) | Pass (if the colony growth was less than 10, it was considered as PASS) | Pass (if the colony growth was less than 10, it was considered as PASS) | Pass (if the colony growth was less than 10, it was considered as PASS) |
| CCCCOCCN [Example 3, 2-butoxy-ethanamine] | Pass (if the colony growth was less than 10, it was considered as PASS) | Pass (if the colony growth was less than 10, it was considered as PASS) | Pass (if the colony growth was less than 10, it was considered as PASS) | Pass (if the colony growth was less than 10, it was considered as PASS) | Pass (if the colony growth was less than 10, it was considered as PASS) |
| CCCOCC(C)OCC(C)OCC(C)N (centres unmarked) [Example 4, 1-[1-methyl-2-(1-methyl-2-propoxyethoxy)ethoxy]-2-propanamine] | Pass (if the colony growth was less than 10, it was considered as PASS) | Pass (if the colony growth was less than 10, it was considered as PASS) | Pass (if the colony growth was less than 10, it was considered as PASS) | Pass (if the colony growth was less than 10, it was considered as PASS) | Pass (if the colony growth was less than 10, it was considered as PASS) |
| COCC(C)N (centres unmarked) [Example 1, 1-methoxy-2-propanamine] | Pass (if the colony growth was less than 10, it was considered as PASS) | Pass (if the colony growth was less than 10, it was considered as PASS) | Pass (if the colony growth was less than 10, it was considered as PASS) | Pass (if the colony growth was less than 10, it was considered as PASS) | Pass (if the colony growth was less than 10, it was considered as PASS) |
| CCCCOCC(C)OCC(C)N (centres unmarked) [Example 5, 2-propanamine, 1-(2-butoxy-1-methylethoxy)-] | Pass (if the colony growth was less than 10, it was considered as PASS) | Pass (if the colony growth was less than 10, it was considered as PASS) | Pass (if the colony growth was less than 10, it was considered as PASS) | Pass (if the colony growth was less than 10, it was considered as PASS) | Pass (if the colony growth was less than 10, it was considered as PASS) |
| CCCCOCC(C)N (centres unmarked) [Example 2, 1-butoxy-2-propanamine] | Pass (if the colony growth was less than 10, it was considered as PASS) | Pass (if the colony growth was less than 10, it was considered as PASS) | Pass (if the colony growth was less than 10, it was considered as PASS) | Pass (if the colony growth was less than 10, it was considered as PASS) | Pass (if the colony growth was less than 10, it was considered as PASS) |
| CC(C)(N)CO [compound 2, 2-amino-2-methyl-1-propanol, reference compound] | Pass (if the colony growth was less than 10, it was considered as PASS) | Pass (if the colony growth was less than 10, it was considered as PASS) | Pass (if the colony growth was less than 10, it was considered as PASS) | Pass (if the colony growth was less than 10, it was considered as PASS) | Pass (if the colony growth was less than 10, it was considered as PASS) |
